Test results taken from patent US8530636B2, “Method for regulating protein function in cells in vivo using synthetic small molecules” (priority 2008, dated 2013).
Where two headings read alike, the source gives them in different places.

Test system: HCT116 tumors

## 1-[2-(3,4,5-trimethoxy-phenyl)-butyryl]-piperazine-2-carboxylic acid 3-(3,4-dimethoxy-phenyl)-1-[3-(2-morpholin-4-yl-ethoxy)-phenyl]-propyl ester [Shield1]
Shield1 delayed until 3 days following virus
  Virus in the tumor (viral luciferase expression): equivalent to those observed in animals treated with virus alone
Shield1 started prior to virus delivery
  Virus in the tumor (viral luciferase expression): only modest levels of virus
mouse, in vivo
  Adverse physiological effects: no adverse physiological effects observed
  Tumor burden compared to virus alone: significantly decreased tumor burden
  Tumor responses: Seven of the eight animals demonstrated complete and durable responses
No virus
  Tumor burden, Shield1 alone: no effect on tumor burden
